This note sets out measurements from patent US20050090522A1 (priority 2001, published 2005).

Each structure is given as a SMILES string.

The test system of the first experiment is HIV-1. Briefly: HIV-1 single-round infectious luciferase reporter virus (pseudotype) assay in HeLa CD4 CCR5 cells. Type of experiment: cell-based. The settings on record: Human immunodeficiency virus 1, HeLa-CD4/CCR5, read-out: EC50 Group from TABLE 1, HeLa CD4 CCR5 cells, single-round infectious luciferase reporter virus. Summed up:
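HeLa CD4 CCR5 cells (5×10^4/well, DMEM + 10% FBS) were treated with compound (final <10 μM) and infected with single-round luciferase reporter virus made in 293 cells, at MOI ~0.01. Luciferase was read 72 h post infection. EC50 came from 10-concentration percent-inhibition curves fitted to a four-parameter logistic model.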
On the technique in general: A reporter such as luciferase makes a cellular process visible.
As a reminder, the EC50 is the concentration giving half of the maximal effect. Take `O=C(C(=O)N1CCN(C(=O)c2ccccc2)CC1)c1c[nH]c2c(-c3c[nH]c(=O)cn3)ncc(Cl)c12` [Example 149]: the EC50 was less than 1 µM.
For `COc1cnc(C2=NC(C)(C)CO2)c2[nH]cc(C(=O)C(=O)N3CCN(C(=O)c4ccccc4)CC3)c12` [Example 156], the EC50 was less than 1 µM.
Consider `COc1cnc(-c2nccs2)c2[nH]cc(C(=O)C(=O)N3CCN(C(=O)c4ccccn4)CC3)c12` [Example 50], for which the EC50 was less than 1 µM.
Still for that read-out and setting: to `COc1cnc(-c2cscn2)c2[nH]cc(C(=O)C(=O)N3CCN(C(=O)c4ccccc4)CC3)c12` [Example 174, 1-benzoyl-4-[(4-methoxy-7-(thiazol-4-yl)-6-azaindol-3-yl)-oxoacetyl]piperazine] belongs less than 1 µM; to `COc1cnc(-c2cccc(C)n2)c2[nH]cc(C(=O)C(=O)N3CCN(C(=O)c4ccccc4)CC3)c12` [Example 76, 1-benzoyl-4-[(4-methoxy-7-(2-methyl-pyridin-6-yl)-6-azaindol-3-yl)-oxoacetyl]piperazine], less than 1 µM; to `COc1cnc(-c2cnc(N3CCNCC3)cn2)c2[nH]cc(C(=O)C(=O)N3CCN(C(=O)c4ccccc4)CC3)c12` [Example 177, 1-benzoyl-4-[(4-methoxy-7-(2-(N-piperazinyl)-pyrazin-5-yl)-6-azaindol-3-yl)-oxoacetyl]piperazine], less than 1 µM.
On the same count and under the same terms, to `CCCOC(=O)N1CCN(C(=O)C(=O)c2c[nH]c3c(-c4cnccn4)ncc(OC)c23)CC1` [Example 199] belongs less than 1 µM; to `O=C(C(=O)N1CCN(C(=O)c2ccccc2)CC1)c1c[nH]c2c(-c3ccco3)nccc12` [Example 7, 1-benzoyl-4-[(7-(furan-2-yl)-6-azaindol-3-yl)-oxoacetyl] piperazine], less than 1 µM; to `C[C@@H]1CN(C(=O)c2ccccc2)CCN1C(=O)C(=O)c1c[nH]c2c(-c3cncc(N)n3)nccc12` [Example 111, (R)-1-benzoyl-3-methyl-4-[(7-(2-amino-pyrazin-6-yl)-6-azaindol-3-yl)-oxoacetyl]piperazine], less than 1 µM.
As for `COc1cnc(-n2ccc(-c3ccc(C(=O)O)cc3)n2)c2[nH]cc(C(=O)C(=O)N3CCN(C(=O)c4ccccc4)CC3)c12` [Example 292, 1-benzoyl-4-[(4-methoxy-7-(3-(4-hydroxylcarbonylphenyl)-pyrazol-1-yl)-6-azaindol-3-yl)-oxoacetyl]piperazine], the half-maximal effective concentration (EC50) was less than 1 µM.
Same read-out and setting: to `C[C@@H]1CN(C(=O)c2ccccc2)CCN1C(=O)C(=O)c1c[nH]c2c(-c3ccc(O)nc3)nccc12` [Example 122] belongs less than 1 µM; to `C[C@@H]1CN(C(=O)c2ccccc2)CCN1C(=O)C(=O)c1c[nH]c2c(-c3cccc(NC(=O)C4OC4C(=O)O)n3)nccc12` (stereo in doubt) [Example 297, 3-(6-{3-[2-(4-Benzoyl-2-methyl-piperazin-1-yl)-2-oxo-acetyl]-1H-pyrrolo[2,3-c]pyridin-7-yl}-pyridin-2-ylcarbamoyl)-oxirane-2-carboxylic acid], less than 1 µM; to `CCN(CC)C(=O)c1cnc(-c2ncc(OC)c3c(C(=O)C(=O)N4CCN(C(=O)c5ccccn5)CC4)c[nH]c23)cn1` [Example 184, 1-picolinoyl-4-[(4-methoxy-7-(2-diethylaminocarbonyl-pyrazin-5-yl)-6-azaindol-3-yl)-oxoacetyl]piperazine], less than 1 µM.
Same read-out and setting: to `COc1ccc(-c2ncc(OC)c3c(C(=O)C(=O)N4CCN(C(=O)c5ccccc5)CC4)c[nH]c23)cn1` [Example 69, 1-benzoyl-4-[(4-methoxy-7-(6-methoxy-pyridin-3-yl)-6-azaindol-3-yl)-oxoacetyl]piperazine] belongs less than 1 µM; to `CCCSc1ncn(-c2ncc(OC)c3c(C(=O)C(=O)N4CCN(C(=O)c5ccccc5)CC4)c[nH]c23)n1` [Example 289, 1-benzoyl-4-[(4-methoxy-7-(3-propylsulfanyl-[1,2,4]triazol-1-yl)-6-azaindol-3-yl)-oxoacetyl]piperazine], less than 1 µM; to `COc1cnc(-c2cc3ccncc3o2)c2[nH]cc(C(=O)C(=O)N3CCN(C(=O)c4ccccc4)CC3)c12` [Example 104, 1-benzoyl-4-[(4-methoxy-7-(6-aza-benzofuran-2-yl)-6-azaindol-3-yl)-oxoacetyl]piperazine], less than 1 µM.
On the same count and under the same terms, as for `CNc1ncc(-c2ncc(OC)c3c(C(=O)C(=O)N4CCN(C(=O)c5ccccc5)CC4)c[nH]c23)nc1OC` [Example 100, 1-benzoyl-4-[(4-methoxy-7-(2-methylamino-3-methoxy-pyrazin-5-yl)-6-azaindol-3-yl)-oxoacetyl]piperazine], the figure is less than 1 µM.
In the case of `COc1cnc(-c2cnccn2)c2[nH]cc(C(=O)C(=O)N3CCN(C(=O)c4csnn4)CC3)c12` [Example 197], the EC50 is less than 1 µM.
On to `COc1cc(-c2ncc(OC)c3c(C(=O)C(=O)N4CCN(C(=O)c5ccccc5)CC4)c[nH]c23)nc(OC)n1` [Example 68, 1-benzoyl-4-[(4-methoxy-7-(2,6-dimethoxy-pyrimidin-4-yl)-6-azaindol-3-yl)-oxoacetyl]piperazine], for which the EC50 was less than 1 µM.
Still for that read-out and setting: to `CC(C)Cc1ncc(-c2nccc3c(C(=O)C(=O)N4CCN(C(=O)c5ccccc5)CC4)c[nH]c23)s1` [Example 89, 1-benzoyl-4-[(7-(2-isobutyl-thiazol-5-yl)-6-azaindol-3-yl)-oxoacetyl]piperazine] belongs less than 1 µM.
On the same count and under the same terms, as for `COc1cnc(-c2cn(C)c(=O)cn2)c2[nH]cc(C(=O)C(=O)N3CCN(C(=O)c4ccccc4)CC3)c12` [Example 138, 1-(benzoyl)-4-[(4-methoxy-7-(1-methylpyrazin-2-on-5-yl)-6-azaindol-3-yl)-oxoacetyl]piperazine], the figure is less than 1 µM.
Still for that read-out and setting: as for `COc1cnc(-c2cnc(N)cn2)c2[nH]cc(C(=O)C(=O)N3CCN(C(=O)c4ccccc4)CC3)c12` [Example 26], the figure is less than 1 µM; as for `C[C@@H]1CN(C(=O)c2ccccn2)CCN1C(=O)C(=O)c1c[nH]c2c(-c3cc4ccccc4o3)nccc12` [Example 107, (R)-1-picolinoyl-3-methyl-4-[(7-(benzofuran-2-yl)-6-azaindol-3-yl)-oxoacetyl]piperazine], less than 1 µM; as for `COc1cnc(-c2ccncc2)c2[nH]cc(C(=O)C(=O)N3CCN(C(=O)c4ccccc4)CC3)c12` [Example 14, 1-benzoyl-4-[(4-methoxy-7-(pyridin-4-yl)-6-azaindol-3-yl)-oxoacetyl]piperazine], less than 1 µM.
As for `O=C(C(=O)N1CCN(C(=O)c2ccccc2)CC1)c1c[nH]c2c(-c3cccnn3)ncc(F)c12` [Example 154], the EC50 is less than 1 µM.
Still for that read-out and setting: as for `COc1cnc(-c2ccsc2)c2[nH]cc(C(=O)C(=O)N3CCN(C(=O)c4ccccc4)CC3)c12` [Example 83, 1benzoyl-4-[(4-methoxy-7-(thiophen-3-yl)-6-azaindol-3-yl)-oxoacetyl]piperazine], the figure is less than 1 µM; as for `COc1cnc(-c2ncccn2)c2[nH]cc(C(=O)C(=O)N3CCN(C(=O)c4ccccc4)CC3)c12` [Example 49, 1-benzoyl-4-[(4-methoxy-7-(pdin-2-yl)-6-azaindol-3-yl)-oxoacetyl]piperazine], less than 1 µM; as for `Nc1cnc(-c2ncc(Cl)c3c(C(=O)C(=O)N4CCN(C(=O)c5ccccc5)CC4)c[nH]c23)cn1` [Example 143], less than 1 µM.
Same read-out and setting: as for `C[C@@H]1CN(C(=O)c2ccccc2)CCN1C(=O)C(=O)c1c[nH]c2c(-c3cccc(O)n3)nccc12` [Example 123], the figure is less than 1 µM.

Still in this experiment, the particulars now being: Human immunodeficiency virus 1, HeLa-CD4/CCR5, read-out: EC50 Group from Table 1, Table 2-1; HeLa CD4 CCR5 cells, single-round luciferase reporter virus.
For `COc1cnc(-n2ccc(C(C)(C)C)n2)c2[nH]cc(C(=O)C(=O)N3CCN(C(=O)c4ccccc4)[C@H](C)C3)c12` [Example 243, (R)-1-benzoyl-2-methyl-4-[(4-methoxy-7-(3-t-butyl-pyrazol-1-yl)-6-azaindol-3-yl)-oxoacetyl]piperazine], the EC50 was less than 1 µM.
The same measure, in the same setting: as for `CCCc1ccn(-c2ncc(OC)c3c(C(=O)C(=O)N4CCN(C(=O)c5ccccc5)[C@H](C)C4)c[nH]c23)n1` [Example 231, (R)-1-benzoyl-2-methyl-4-[(4-methoxy-7-(3-propyl-pyrazol-1-yl)-6-azaindol-3-yl)-oxoacetyl]piperazine], the figure is less than 1 µM; as for `COc1cnc(-n2nccc2C)c2[nH]cc(C(=O)C(=O)N3CCN(C(=O)c4ccccc4)[C@H](C)C3)c12` [Example 242, (R)-1-benzoyl-2-methyl-4-[(4-methoxy-7-(5-methyl-pyrazol-1-yl)-6-azaindol-3-yl)-oxoacetyl]piperazine], less than 1 µM.

The same experiment, now with this note: Human immunodeficiency virus 1, HeLa-CD4/CCR5, read-out: EC50 Group from Table 1, Table 4; HeLa CD4 CCR5 cells, single-round luciferase reporter virus.
Consider `O=C(C(=O)N1CCN(C(=O)c2ccccc2)CC1)c1c[nH]c2c(-c3nccs3)ccnc12` [Example 131], for which the 50% effective concentration (EC50) was less than 1 µM.
On the same count and under the same terms, to `C[C@@H]1CN(C(=O)c2ccccc2)CCN1C(=O)C(=O)c1c[nH]c2c(-c3ncc[nH]3)cc(Cl)nc12` [Example 60, 1-benzoyl-3-(R)-methyl-4-[(5-chloro-7-(imidazol-2-yl)-4-azaindol-3-yl)-oxoacetyl]piperazine] belongs less than 1 µM; to `C[C@@H]1CN(C(=O)c2ccccc2)CCN1C(=O)C(=O)c1c[nH]c2c(-c3ccsc3)ccnc12` [Example 129], less than 1 µM.
Turning to `C[C@@H]1CN(C(=O)c2ccccc2)CCN1C(=O)C(=O)c1c[nH]c2c(-c3nccs3)ccnc12` [Example 53, 1-benzoyl-3-(R)-methyl-4-[(7-(thiazol-2-yl)-4-azaindol-3-yl)-oxoacetyl]piperazine], the EC50 was less than 1 µM.
Turning to `COc1ccc(-c2ccnc3c(C(=O)C(=O)N4CCN(C(=O)c5ccccc5)CC4)c[nH]c23)cc1` [Example 65, 1-(benzoyl)-4-[(7-(4-methoxy)-4-azaindol-3-yl)-oxoacetyl]piperazine], the EC50 was less than 1 µM.
